16 molecules from patent US20260374781A1, “NOVEL TRIHETEROCYCLIC COMPOUNDS” (IDENCE CO., LTD., priority 2022, published 2026) can be followed below.

The term IC50 denotes the concentration needed to halve the response being measured. Higher therefore signals lower potency.

Assay [1] deals with AsPC-1 cells. The experiment in a line: Cell Proliferation Assay, AsPC-1 (CellTiter-Glo 2.0 viability). In kind it is cell-based. The following applies: AsPC-1 pancreatic cancer (KRAS G12D mutation). Here is the method: (§1) Test Example 3: Cell Proliferation Assay
(§2) Cell viability testing of test compounds in AsPC-1 pancreatic cancer (KRAS G12D mutation) or SW480 colon cancer (KRAS G12V mutation) cells for 72 hours
(§3) The reference compound Staurosporine was purchased from Sigma-Aldrich (Saint Louis, MI), and CellTiter-Glo® 2.0 Luminescent cell viability assay reagent (cat #G9243) was purchased from Promega (Madison, WI). AsPC-1 and SW480 cell lines were purchased from American Type Culture Collection (Manassas, VA). AsPC-1 cells were cultured with RPMI-1640 (ATCC, cat #30-2001) and SW480 cells were cultured with DMEM (ATCC cat #30-2002).
(§4) A medium supplemented with 10% FBS (Sigma-Aldrich, cat #F2442) and 100 µg/mL of penicillin-streptomycin (Sigma-Aldrich, cat #P4333) was used. Cells were cultured at 37 °C in a humidified atmosphere of 5% CO2 and 95% air.
(§5) • 1. The test compound and reference compound, Staurosporine were dissolved in DMSO solution to prepare 20 mM (test compound) and 10 mM (control compound, Staurosporine) in the Source Plate and diluted with DMSO to 3-fold and 10 doses. • 2. From the Source Plate, 10 volumes of 125 nL test compound or 25 nL reference compound were dispensed into wells of a 384-well culture plate (VWR, cat #82050-076) using Echo 655. • 3. 25 μL of culture medium including 2000 AsPC-1 or SW480 cells was dispensed into each 384-well cell culture plate. • 4. Cells were cultured with the compound for 72 hours at 37 °C and 5% CO2 conditions. • 5. 25 μL of CellTiter-Glo 2.0 reagent was added to each well of the plate. • 6. The contents were mixed for 2 minutes on an orbital shaker, and the luminescence signal was stabilized at room temperature for 15 minutes. • 7. Luminescence signals were measured with an Envision 2104 Multilabel Reader (PerkinElmer, Santa Clara, CA), and the number of surviving cells was determined through quantification of ATP present in each culture. • 8. IC50 values were calculated based on the Sigmoidal dose-response equation in the GraphPad Prism 4 program.
In general terms: In ATP-based viability assays light output follows the ATP content of the culture.

For assay [2], the system named is SW480 cells. The experiment in a line: Cell Proliferation Assay, SW480 (CellTiter-Glo 2.0 viability). In kind it is cell-based. The following applies: Homo sapiens; SW480 colon cancer (KRAS G12V mutation); 72 hours. How it is done: as §1, §2, §3, §4, §5

Take `C#Cc1c(F)ccc2cc(O)cc(-c3nc4c5c(nc(OC[C@@]67CCCN6C[C@H](F)C7)nc5c3F)N([C@H](C)c3cccnc3N)C[C@H](C)O4)c12` [Example 6a, 4-((S)-10-((R)-1-(2-aminopyridin-3-yl)ethyl)-4-fluoro-2-(((2R,7aS)-2-fluorotetrahydro-1H-pyrrolizin-7a(5H)-yl)methoxy)-8-methyl-9,10-dihydro-8H-7-oxa-1,3,6,10-tetraazacyclohepta[de]naphthalen-5-yl)-5-ethynyl-6-fluoronaphthalen-2-ol]: the concentration for half-maximal inhibition (IC50) in assay [1] (Homo sapiens, ASPC1, 72 h) lay in the range of 1 to 10 µM; in assay [2], 1 to 10 µM. Turning to `C#Cc1c(F)ccc2cc(O)cc(-c3nc4c5c(nc(OCC6(CN7CCOCC7)CC6)nc5c3F)N(C(C)c3cccnc3N)CCO4)c12` (stereo not drawn) [Example 12, 4-(10-(1-(2-aminopyridin-3-yl)ethyl)-4-fluoro-2-((1-(morpholinomethyl)cyclopropyl)methoxy)-9,10-dihydro-8H-7-oxa-1,3,6,10-tetraazacyclohepta[de]naphthalen-5-yl)-5-ethynyl-6-fluoronaphthalen-2-ol], the 50% inhibitory concentration (IC50) is 1 to 10 µM in assay [1] (Homo sapiens, ASPC1, 72 h) and less than 1 µM in assay [2].

Regarding `C#Cc1c(F)ccc2cc(O)cc(-c3nc4c5c(nc(OC[C@@]67CCCN6C[C@H](F)C7)nc5c3F)N([C@H](C)c3cccnc3N)CCO4)c12` [Example 13a, 4-(10-((R)-1-(2-aminopyridin-3-yl)ethyl)-4-fluoro-2-(((2R,7aS)-2-fluorotetrahydro-1H-pyrrolizin-7a(5H)-yl)methoxy)-9,10-dihydro-8H-7-oxa-1,3,6,10-tetraazacyclohepta[de]naphthalen-5-yl)-5-ethynyl-6-fluoronaphthalen-2-ol], the IC50 was less than 1 µM in assay [1] (Homo sapiens, ASPC1, 72 h) and less than 1 µM in assay [2].

On to `CCc1c(F)ccc2cc(O)cc(-c3nc4c5c(nc(OC[C@@]67CCCN6C[C@H](F)C7)nc5c3F)N([C@H](C)c3cccnc3N)CCO4)c12` [Example 14a, 4-(10-((R)-1-(2-aminopyridin-3-yl)ethyl)-4-fluoro-2-(((2R,7aS)-2-fluorotetrahydro-1H-pyrrolizin-7a(5H)-yl)methoxy)-9,10-dihydro-8H-7-oxa-1,3,6,10-tetraazacyclohepta[de]naphthalen-5-yl)-5-ethyl-6-fluoronaphthalen-2-ol], for which the IC50 in assay [1] (Homo sapiens, ASPC1, 72 h) was less than 1 µM; in assay [2], less than 1 µM. Regarding `CCc1c(F)ccc2cc(O)cc(-c3nc4c5c(nc(OC[C@@]67CCCN6C[C@H](OC)C7)nc5c3F)N(C(C)c3cccnc3N)CCO4)c12` (stereo partly drawn) [Example 17, 4-(10-(1-(2-aminopyridin-3-yl)ethyl)-4-fluoro-2-(((2R,7aS)-2-methoxytetrahydro-1H-pyrrolizin-7a(5H)-yl)methoxy)-9,10-dihydro-8H-7-oxa-1,3,6,10-tetraazacyclohepta[de]naphthalen-5-yl)-5-ethyl-6-fluoronaphthalen-2-ol], the half-maximal inhibitory concentration (IC50) in assay [1] (Homo sapiens, ASPC1, 72 h) was less than 1 µM; in assay [2], less than 1 µM. Take `C#Cc1c(F)ccc2cc(O)cc(-c3nc4c5c(nc(OCC6C[C@@H](F)CN6C)nc5c3F)N(C(C)c3cccnc3N)CCO4)c12` (stereo partly drawn) [Example 18, 4-(10-(1-(2-aminopyridin-3-yl)ethyl)-4-fluoro-2-(((4R)-4-fluoro-1-methylpyrrolidin-2-yl)methoxy)-9,10-dihydro-8H-7-oxa-1,3,6,10-tetraazacyclohepta[de]naphthalen-5-yl)-5-ethynyl-6-fluoronaphthalen-2-ol]: the IC50 was 1 to 10 µM in assay [1] (Homo sapiens, ASPC1, 72 h) and less than 1 µM in assay [2]. For `C#Cc1c(F)ccc2cc(O)cc(-c3nc4c5c(nc(OC[C@@]67CCCN6C[C@H](F)C7)nc5c3F)N(C(C)c3ccccc3N)CCO4)c12` (stereo partly drawn) [Example 20, 4-(10-(1-(2-aminophenyl)ethyl)-4-fluoro-2-(((2R,7aS)-2-fluorotetrahydro-1H-pyrrolizin-7a(5H)-yl)methoxy)-9,10-dihydro-8H-7-oxa-1,3,6,10-tetraazacyclohepta[de]naphthalen-5-yl)-5-ethynyl-6-fluoronaphthalen-2-ol], the IC50 in assay [2] is less than 1 µM.

For the molecule `CCc1c(F)ccc2cc(O)cc(-c3nc4c5c(nc(OCC6C[C@@H](F)CN6C)nc5c3F)N(C(C)c3cccnc3N)CCO4)c12` (stereo partly drawn) [Example 22, 4-(10-(1-(2-aminopyridin-3-yl)ethyl)-4-fluoro-2-(((4R)-4-fluoro-1-methylpyrrolidin-2-yl)methoxy)-9,10-dihydro-8H-7-oxa-1,3,6,10-tetraazacyclohepta[de]naphthalen-5-yl)-5-ethyl-6-fluoronaphthalen-2-ol], the IC50 in assay [1] (Homo sapiens, ASPC1, 72 h) was 1 to 10 µM; in assay [2], less than 1 µM. For `CCc1c(F)ccc2cc(O)cc(-c3nc4c5c(nc(OC[C@@]67CCCN6C[C@H](F)C7)nc5c3F)N(C(C)c3cc(C)cnc3N)CCO4)c12` (stereo partly drawn) [Example 23, 4-(10-(1-(2-amino-5-methylpyridin-3-yl)ethyl)-4-fluoro-2-(((2R,7aS)-2-fluorotetrahydro-1H-pyrrolizin-7a(5H)-yl)methoxy)-9,10-dihydro-8H-7-oxa-1,3,6,10-tetraazacyclohepta[de]naphthalen-5-yl)-5-ethyl-6-fluoronaphthalen-2-ol], in that order: 1 to 10 µM and less than 1 µM.

In the case of `CCc1c(F)ccc2cc(O)cc(-c3nc4c5c(nc(OCC6(C#N)CCOCC6)nc5c3F)N(C(C)c3cccnc3N)CCO4)c12` (stereo not drawn) [Example 24, 4-(((10-(1-(2-aminopyridin-3-yl)ethyl)-5-(8-ethyl-7-fluoro-3-hydroxynaphthalen-1-yl)-4-fluoro-9,10-dihydro-8H-7-oxa-1,3,6,10-tetraazacyclohepta[de]naphthalen-2-yl)oxy)methyl)tetrahydro-2H-pyran-4-carbonitrile], the half-inhibitory concentration (IC50) in assay [1] (Homo sapiens, ASPC1, 72 h) is more than 10 µM; in assay [2], 1 to 10 µM. For `CCc1c(F)ccc2cc(O)cc(-c3nc4c5c(nc(OC[C@@H]6CC[C@H]7COCCN76)nc5c3F)N(C(C)c3cccnc3N)CCO4)c12` (stereo partly drawn) [Example 25, 4-(10-(1-(2-aminopyridin-3-yl)ethyl)-4-fluoro-2-(((6S,8aS)-hexahydro-1H-pyrrolo[2,1-c][1,4]oxazin-6-yl)methoxy)-9,10-dihydro-8H-7-oxa-1,3,6,10-tetraazacyclohepta[de]naphthalen-5-yl)-5-ethyl-6-fluoronaphthalen-2-ol], the concentration for half-maximal inhibition (IC50) in assay [1] (Homo sapiens, ASPC1, 72 h) was 1 to 10 µM; in assay [2], less than 1 µM.

In assay [1] (Homo sapiens, ASPC1, 72 h), `CCc1c(F)ccc2cc(O)cc(-c3nc4c5c(nc(OCC6(CN7CC[C@@H](F)C7)CC6)nc5c3F)N(C(C)c3cccnc3N)CCO4)c12` (stereo partly drawn) [Example 26, 4-(10-(1-(2-aminopyridin-3-yl)ethyl)-4-fluoro-2-((1-(((R)-3-fluoropyrrolidin-1-yl)methyl)cyclopropyl)methoxy)-9,10-dihydro-8H-7-oxa-1,3,6,10-tetraazacyclohepta[de]naphthalen-5-yl)-5-ethyl-6-fluoronaphthalen-2-ol] registered a half-maximal inhibitory concentration (IC50) of 1 to 10 µM. The same measure, in the same setting: under `CCc1c(F)ccc2cc(O)cc(-c3nc4c5c(nc(OC[C@@H]6CCCN6CC(F)F)nc5c3F)N(C(C)c3cccnc3N)CCO4)c12` (stereo partly drawn) [Example 27, 4-(10-(1-(2-aminopyridin-3-yl)ethyl)-2-(((S)-1-(2,2-difluoroethyl)pyrrolidin-2-yl)methoxy)-4-fluoro-9,10-dihydro-8H-7-oxa-1,3,6,10-tetraazacyclohepta[de]naphthalen-5-yl)-5-ethyl-6-fluoronaphthalen-2-ol] stands more than 10 µM.

`CCc1c(F)ccc2cc(O)cc(-c3nc4c5c(nc(OC[C@@]67CCCN6C[C@H](F)C7)nc5c3F)N(C)CCO4)c12` [Example 28, 5-ethyl-6-fluoro-4-(4-fluoro-2-(((2R,7aS)-2-fluorotetrahydro-1H-pyrrolizin-7a(5H)-yl)methoxy)-10-methyl-9,10-dihydro-8H-7-oxa-1,3,6,10-tetraazacyclohepta[de]naphthalen-5-yl)naphthalen-2-ol] yielded an IC50 in assay [1] (Homo sapiens, ASPC1, 72 h) of more than 10 µM. `CC(c1cccnc1N)N1CCOc2c(Cl)c(-c3ccc(F)c4sc(N)c(C#N)c34)c(F)c3nc(OC[C@@]45CCCN4C[C@H](F)C5)nc1c23` (stereo partly drawn) [Example 29a, (4R)-2-amino-4-(4-(1-(2-aminopyridin-3-yl)ethyl)-8-chloro-10-fluoro-2-(((2R,7aS)-2-fluorotetrahydro-1H-pyrrolizin-7a(5H)-yl)methoxy)-5,6-dihydro-4H-[1,4]oxazepino[5,6,7-de]quinazolin-9-yl)-7-fluorobenzo[b]thiophene-3-carbonitrile]: the IC50 was less than 1 µM in assay [1] (Homo sapiens, ASPC1, 72 h) and less than 1 µM in assay [2].

For the molecule `CC(c1cccnc1N)N1CCOc2c(Cl)c(-c3ccc(F)c4sc(N)c(C#N)c34)c(F)c3nc(OC[C@@]45CCCN4C[C@H](F)C5)nc1c23` (stereo partly drawn) [Example 29b, (4S)-2-amino-4-(4-(1-(2-aminopyridin-3-yl)ethyl)-8-chloro-10-fluoro-2-(((2R,7aS)-2-fluorotetrahydro-1H-pyrrolizin-7a(5H)-yl)methoxy)-5,6-dihydro-4H-[1,4]oxazepino[5,6,7-de]quinazolin-9-yl)-7-fluorobenzo[b]thiophene-3-carbonitrile], in assay [1] (72 hours), the 50% inhibitory concentration (IC50) lay in the range of 1 to 10 µM.
